Assay results published in patent US20140031278A1, “Novel Glucagon Analogues” (NOVO NORDISK A/S, priority 2011, published 2014).
*1 amine or outer side, *2 acyl side, *3 side chain or, on linkers, in order; H or OH if unused. Where a SMILES comes first, the peptide text is derived from it. Side-chain parts run from the residue outwards. γGlu = O=C(O)[C@H](CCC(=O)[*:2])N[*:1]

Biological target: T1, glucagon receptor (Homo sapiens, UniProt P47871)
T1 construct: expressed in transfected cells
Experiment: Assay (I) Glucagon activity (cAMP biosensor, FLIPR)
Format: cell-based
Conditions: HEK-293 cells with cloned glucagon receptor and cAMP biosensor; end point after 6 minutes
How it was run: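 HEK-293 cells expressing glucagon receptor with membrane cAMP biosensor (ACTOne), calcium-dye loaded with probenecid and a PDE inhibitor.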

T1 sequence (P47871 26-477): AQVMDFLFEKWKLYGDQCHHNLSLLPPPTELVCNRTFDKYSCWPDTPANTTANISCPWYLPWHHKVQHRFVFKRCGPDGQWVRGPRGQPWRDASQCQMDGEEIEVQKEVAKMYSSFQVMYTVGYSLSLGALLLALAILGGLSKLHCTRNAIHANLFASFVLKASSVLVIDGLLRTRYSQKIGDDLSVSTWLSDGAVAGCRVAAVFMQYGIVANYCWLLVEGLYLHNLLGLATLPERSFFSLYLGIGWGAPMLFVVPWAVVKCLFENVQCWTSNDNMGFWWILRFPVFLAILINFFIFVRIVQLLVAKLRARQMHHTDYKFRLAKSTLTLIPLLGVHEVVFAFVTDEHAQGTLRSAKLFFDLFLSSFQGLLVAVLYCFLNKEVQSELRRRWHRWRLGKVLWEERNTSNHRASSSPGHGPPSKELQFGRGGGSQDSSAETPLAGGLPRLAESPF

Row | Structure (SMILES) | EC50
1 | CC(=O)N[C@@H](CCC(=O)N[C@@H](CCC(=O)N[C@@H](CCC(=O)N[C@@H](CCC(=O)NCCCC[C@H](NC(=O)[C@@H](NC(=O)[C@H](Cc1ccccc1)NC(=O)[C@H](CCC(=O)O)NC(=O)[C@H](CCC(N)=O)NC(=O)[C@H](C)NC(=O)[C@H](CCCNC(=N)N)NC(=O)[C@H](CCCNC(=N)N)NC(=O)[C@H](CO)NC(=O)[C@H](CCC(=O)O)NC(=O)[C@H](CC(C)C)NC(=O)[C@H](Cc1ccc(O)cc1)NC(=O)[C@H](CCCCN)NC(=O)[C@H](CO)NC(=O)[C@@H](NC(=O)[C@H](CC(=O)O)NC(=O)[C@H](CO)NC(=O)[C@@H](NC(=O)[C@H](Cc1ccccc1)NC(=O)[C@@H](NC(=O)CNC(=O)[C@H](CCC(N)=O)NC(=O)[C@H](CO)NC(=O)[C@@H](N)Cc1c[nH]cn1)[C@@H](C)O)[C@@H](C)O)C(C)C)C(C)C)C(=O)N[C@@H](Cc1c[nH]c2ccccc12)C(=O)N[C@@H](CC(C)C)C(=O)N[C@@H](CC(C)C)C(=O)N[C@@H](CO)C(=O)N[C@H](C(=O)O)[C@@H](C)O)C(=O)O)C(=O)O)C(=O)O)C(=O)O [Example 45, N^ε24-[(4S)-4-[[(4S)-4-[[(4S)-4-[[(4S)-4-acetamido-4-carboxybutanoyl]amino]-4-carboxybutanoyl]amino]-4-carboxybutanoyl]amino]-4-carboxybutanoyl]-[Val^10,Glu^15,Glu^21,Lys^24,Leu^27,Ser^28]-Glucagon] (H-HSQGTFTSDVSKYLESRRAQEFVK([γGlu-γGlu-γGlu-γGlu-Ac])WLLST-OH) | 27 pM
2 | CC(=O)N[C@@H](CCC(=O)N[C@@H](CCC(=O)N[C@@H](CCC(=O)N[C@@H](CCC(=O)NCCCC[C@H](NC(=O)[C@@H](NC(=O)[C@H](Cc1ccccc1)NC(=O)[C@H](CCC(=O)O)NC(=O)[C@H](C)NC(=O)[C@H](C)NC(=O)[C@H](CCCNC(=N)N)NC(=O)[C@H](CCCNC(=N)N)NC(=O)[C@@H](NC(=O)[C@H](CC(=O)O)NC(=O)[C@H](CC(C)C)NC(=O)[C@H](Cc1ccc(O)cc1)NC(=O)[C@H](CCCCN)NC(=O)[C@H](CO)NC(=O)[C@H](Cc1ccc(O)cc1)NC(=O)[C@H](CC(=O)O)NC(=O)[C@H](CO)NC(=O)[C@@H](NC(=O)[C@H](Cc1ccccc1)NC(=O)[C@@H](NC(=O)CNC(=O)[C@H](Cc1c[nH]cn1)NC(=O)CNC(=O)[C@@H](N)Cc1c[nH]cn1)[C@@H](C)O)[C@@H](C)O)C(C)C)C(C)C)C(=O)N[C@@H](Cc1c[nH]c2ccccc12)C(=O)N[C@@H](CC(C)C)C(=O)N[C@@H](CC(C)C)C(=O)N[C@@H](CO)C(=O)N[C@H](C(=O)O)[C@@H](C)O)C(=O)O)C(=O)O)C(=O)O)C(=O)O [Example 46, N^ε24-[(4S)-4-[[(4S)-4-[[(4S)-4-[[(4S)-4-acetamido-4-carboxybutanoyl]amino]-4-carboxybutanoyl]amino]-4-carboxybutanoyl]amino]-4-carboxybutanoyl]-[Gly^2,His^3,Val^16,Ala^2°,Glu^21,Lys^24,Leu^27,Ser^28]-Glucagon] (H-HGHGTFTSDYSKYLDVRRAAEFVK([γGlu-γGlu-γGlu-γGlu-Ac])WLLST-OH) | 24 pM
3 | CC(=O)N[C@@H](CCC(=O)N[C@@H](CCC(=O)N[C@@H](CCC(=O)N[C@@H](CCC(=O)NCCCC[C@H](NC(=O)[C@@H](NC(=O)[C@H](Cc1ccccc1)NC(=O)[C@H](CCC(=O)O)NC(=O)[C@H](C)NC(=O)[C@H](C)NC(=O)[C@H](CCCNC(=N)N)NC(=O)[C@H](CCCNC(=N)N)NC(=O)[C@@H](NC(=O)[C@H](CC(=O)O)NC(=O)[C@H](CC(C)C)NC(=O)[C@H](Cc1ccc(O)cc1)NC(=O)[C@H](CCCCN)NC(=O)[C@H](CO)NC(=O)[C@H](Cc1ccc(O)cc1)NC(=O)[C@H](CC(=O)O)NC(=O)[C@H](CO)NC(=O)[C@@H](NC(=O)[C@H](Cc1ccccc1)NC(=O)[C@@H](NC(=O)CNC(=O)[C@H](Cc1c[nH]cn1)NC(=O)[C@H](C)NC(=O)[C@@H](N)Cc1c[nH]cn1)[C@@H](C)O)[C@@H](C)O)C(C)C)C(C)C)C(=O)N[C@@H](Cc1c[nH]c2ccccc12)C(=O)N[C@@H](CC(C)C)C(=O)N[C@@H](CC(C)C)C(=O)N[C@@H](CO)C(=O)N[C@H](C(=O)O)[C@@H](C)O)C(=O)O)C(=O)O)C(=O)O)C(=O)O [Example 47, N^ε24-[(4S)-4-[[(4S)-4-[[(4S)-4-[[(4S)-4-acetamido-4-carboxybutanoyl]amino]-4-carboxybutanoyl]amino]-4-carboxybutanoyl]amino]-4-carboxybutanoyl]-[Ala^2,His^3,Val^16,Ala^20,Glu^21,Lys^24,Leu^27,Ser^28]-Glucagon] (H-HAHGTFTSDYSKYLDVRRAAEFVK([γGlu-γGlu-γGlu-γGlu-Ac])WLLST-OH) | 9 pM
4 | CC(=O)N[C@@H](CCC(=O)N[C@@H](CCC(=O)N[C@@H](CCC(=O)N[C@@H](CCC(=O)NCCCC[C@H](NC(=O)[C@@H](NC(=O)[C@H](Cc1ccccc1)NC(=O)[C@H](CCC(=O)O)NC(=O)[C@H](C)NC(=O)[C@H](C)NC(=O)[C@H](CCCNC(=N)N)NC(=O)[C@H](CCCNC(=N)N)NC(=O)[C@@H](NC(=O)[C@H](CC(=O)O)NC(=O)[C@H](CC(C)C)NC(=O)[C@H](Cc1ccc(O)cc1)NC(=O)[C@H](CCCCN)NC(=O)[C@H](CO)NC(=O)[C@H](Cc1ccc(O)cc1)NC(=O)[C@H](CC(=O)O)NC(=O)[C@H](CO)NC(=O)[C@@H](NC(=O)[C@H](Cc1ccccc1)NC(=O)[C@@H](NC(=O)CNC(=O)[C@H](CCC(N)=O)NC(=O)CNC(=O)[C@@H](N)Cc1c[nH]cn1)[C@@H](C)O)[C@@H](C)O)C(C)C)C(C)C)C(=O)N[C@@H](Cc1c[nH]c2ccccc12)C(=O)N[C@@H](CC(C)C)C(=O)N[C@@H](CC(C)C)C(=O)N[C@@H](CO)C(=O)N[C@H](C(=O)O)[C@@H](C)O)C(=O)O)C(=O)O)C(=O)O)C(=O)O [Example 49, N^ε24-[(4S)-4-[[(4S)-4-[[(4S)-4-[[(4S)-4-acetamido-4-carboxybutanoyl]amino]-4-carboxybutanoyl]amino]-4-carboxybutanoyl]amino]-4-carboxybutanoyl]-[Gly^2,Val^16,Ala^20,Glu^21,Lys^24,Leu^27,Ser^28]-Glucagon] (H-HGQGTFTSDYSKYLDVRRAAEFVK([γGlu-γGlu-γGlu-γGlu-Ac])WLLST-OH) | 54 pM
5 | CC(=O)N[C@@H](CCC(=O)N[C@@H](CCC(=O)N[C@@H](CCC(=O)N[C@@H](CCC(=O)NCCCC[C@H](NC(=O)[C@@H](NC(=O)[C@H](Cc1ccccc1)NC(=O)[C@H](CCC(=O)O)NC(=O)[C@H](C)NC(=O)[C@H](C)NC(=O)[C@H](CCCNC(=N)N)NC(=O)[C@H](CCCNC(=N)N)NC(=O)[C@@H](NC(=O)[C@H](CC(=O)O)NC(=O)[C@H](CC(C)C)NC(=O)[C@H](Cc1ccc(O)cc1)NC(=O)[C@H](CCCCN)NC(=O)[C@H](CO)NC(=O)[C@@H](NC(=O)[C@H](CC(=O)O)NC(=O)[C@H](CO)NC(=O)[C@@H](NC(=O)[C@H](Cc1ccccc1)NC(=O)[C@@H](NC(=O)CNC(=O)[C@H](Cc1c[nH]cn1)NC(=O)CNC(=O)[C@@H](N)Cc1c[nH]cn1)[C@@H](C)O)[C@@H](C)O)C(C)C)C(C)C)C(C)C)C(=O)N[C@@H](Cc1c[nH]c2ccccc12)C(=O)N[C@@H](CC(C)C)C(=O)N[C@@H](CC(C)C)C(=O)N[C@@H](CO)C(=O)N[C@H](C(=O)O)[C@@H](C)O)C(=O)O)C(=O)O)C(=O)O)C(=O)O [Example 50, N^ε24-[(4S)-4-[[(4S)-4-[[(4S)-4-[[(4S)-4-acetamido-4-carboxybutanoyl]amino]-4-carboxybutanoyl]amino]-4-carboxybutanoyl]amino]-4-carboxybutanoyl]-[Gly^2,His^3,Val^10,Val^16,Ala^20,Glu^21,Lys^24,Leu^27,Ser^28]-Glucagon] (H-HGHGTFTSDVSKYLDVRRAAEFVK([γGlu-γGlu-γGlu-γGlu-Ac])WLLST-OH) | 153 pM
6 | CC(=O)N[C@@H](CCC(=O)N[C@@H](CCC(=O)N[C@@H](CCC(=O)N[C@@H](CCC(=O)NCCCC[C@H](NC(=O)[C@@H](NC(=O)[C@H](CO)NC(=O)[C@H](CC(C)C)NC(=O)[C@H](CC(C)C)NC(=O)[C@H](Cc1c[nH]c2ccccc12)NC(=O)[C@H](CCC(N)=O)NC(=O)[C@@H](NC(=O)[C@H](Cc1ccccc1)NC(=O)[C@H](CC(=O)O)NC(=O)[C@H](CCC(N)=O)NC(=O)[C@H](C)NC(=O)[C@H](CCCNC(=N)N)NC(=O)[C@H](CCCNC(=N)N)NC(=O)[C@H](CO)NC(=O)[C@H](CC(=O)O)NC(=O)[C@H](CC(C)C)NC(=O)[C@H](Cc1ccc(O)cc1)NC(=O)[C@H](CCCCN)NC(=O)[C@H](CO)NC(=O)[C@H](Cc1ccc(O)cc1)NC(=O)[C@H](CC(=O)O)NC(=O)[C@H](CO)NC(=O)[C@@H](NC(=O)[C@H](Cc1ccccc1)NC(=O)[C@@H](NC(=O)CNC(=O)[C@H](CCC(N)=O)NC(=O)[C@H](CO)NC(=O)[C@@H](N)Cc1c[nH]cn1)[C@@H](C)O)[C@@H](C)O)C(C)C)[C@@H](C)O)C(=O)O)C(=O)O)C(=O)O)C(=O)O)C(=O)O [Example 51, N^α([Leu^27,Ser^28]-Glucagonyl)-N^ε[(4S)-4-[[(4S)-4-[[(4S)-4-[[(4S)-4-acetamido-4-carboxybutanoyl]amino]-4-carboxybutanoyl]amino]-4-carboxybutanoyl]amino]-4-carboxybutanoyl]Lys] | 7 pM
7 | CC(=O)N[C@@H](CCC(=O)N[C@@H](CCC(=O)N[C@@H](CCC(=O)N[C@@H](CCC(=O)NCCCC[C@H](NC(=O)[C@H](CO)NC(=O)[C@H](CC(C)C)NC(=O)[C@H](CC(C)C)NC(=O)[C@H](Cc1c[nH]c2ccccc12)NC(=O)[C@H](CCC(N)=O)NC(=O)[C@@H](NC(=O)[C@H](Cc1ccccc1)NC(=O)[C@H](CC(=O)O)NC(=O)[C@H](CCC(N)=O)NC(=O)[C@H](C)NC(=O)[C@H](CCCNC(=N)N)NC(=O)[C@H](CCCNC(=N)N)NC(=O)[C@H](CO)NC(=O)[C@H](CC(=O)O)NC(=O)[C@H](CC(C)C)NC(=O)[C@H](Cc1ccc(O)cc1)NC(=O)[C@H](CCCCN)NC(=O)[C@H](CO)NC(=O)[C@H](Cc1ccc(O)cc1)NC(=O)[C@H](CC(=O)O)NC(=O)[C@H](CO)NC(=O)[C@@H](NC(=O)[C@H](Cc1ccccc1)NC(=O)[C@@H](NC(=O)CNC(=O)[C@H](CCC(N)=O)NC(=O)[C@H](CO)NC(=O)[C@@H](N)Cc1c[nH]cn1)[C@@H](C)O)[C@@H](C)O)C(C)C)C(=O)O)C(=O)O)C(=O)O)C(=O)O)C(=O)O [Example 52, N^ε^29-[(4S)-4-[[(4S)-4-[[(4S)-4-[[(4S)-4-acetamido-4-carboxybutanoyl]amino]-4-carboxybutanoyl]amino]-4-carboxybutanoyl]amino]-4-carboxybutanoyl]-[Leu^27,Ser^28,Lys^29]-Glucagon] | 10 pM
